US11142527B2, “Dihydropyrimidine compounds and uses thereof in medicine” (SUNSHINE LAKE PHARMA CO., LTD., priority 2017, dated 2021)

Legend:
HBV [1] = assay: Test of anti HBV activity in vitro (viral DNA by qPCR); format: cell-based; settings: Hepatitis B virus; HepG2.2.15 cells, viral DNA in cell culture supernatant by qPCR; read-out: EC50 values of the compound of the invention on viral replication
Method in brief: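 HepG2.2.15 cells (integrated HBV genome) were grown to confluence, then treated with compound in 4-fold dilutions from 4 μM final (0.5% DMSO). Secreted viral DNA in supernatant was quantified by SYBR qPCR against an HBV plasmid standard curve; EC50 from four-parameter nonlinear regression of concentration versus copy number.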

[2] = Cytotoxicity test with CellTiter Glo; format: cell-based; settings: human, HepG2.2.15 cells, highest concentration 150 μM, read-out: CC50 values of the compounds of the invention
Method in brief: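 HepG2.2.15 cells (3000/well) exposed to serially diluted compound, highest final concentration 150 μM, for 4 days at 37 °C. Viability read by CellTiter Glo, cytotoxicity % taken relative to DMSO controls, and CC50 obtained by four-parameter nonlinear regression.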

HBV [3] = settings: Science, 2003, 299, 893-896; cited from earlier work

COC(=O)C1=C(CN2CCN3C(=O)N(c4ccc(OC5CCC(C(=O)O)CC5)cc4F)C[C@@H]3C2)NC(c2nccs2)=N[C@H]1c1ccc(F)cc1Cl (stereo partly drawn) [Example 112, 4-(4-((S)-7-(((R)-6-(2-chloro-4-fluorophenyl)-5-(methoxycarbonyl)-2-(thiazol-2-yl)-3,6-dihydropyrimidin-4-yl)methyl)-3-oxohexahydroimidazo[1,5-a]pyrazin-2(3H)-yl)-3-fluorophenoxy)cyclohexane carboxylic acid]
EC50 (HBV [1]): 15.4 nM
CC50 at 4 days [2]: > 150 µM

COC(=O)C1=C(CN2CCN3C(=O)N(c4ccc(F)c(-c5ccc(C(=O)O)cc5)c4)C[C@@H]3C2)NC(c2nccs2)=N[C@H]1c1ccc(F)cc1Cl [Example 114, 5′-((S)-7-(((R)-6-(2-chloro-4-fluorophenyl)-5-(methoxycarbonyl)-2-(thiazol-2-yl)-3,6-dihydropyrimidin-4-yl)methyl)-3-oxohexahydroimidazo[1,5-a]pyrazin-2(3H)-yl)-2′-fluoro-[1,1′-biphenyl]-4-carboxylic acid]
EC50 (HBV [1]): 27.7 nM
CC50 at 4 days [2]: > 150 µM

COC(=O)C1=C(CN2CCN3C(=O)N(c4ccc(-c5cc(C(=O)O)ccc5F)cc4)C[C@@H]3C2)NC(c2nccs2)=N[C@H]1c1ccc(F)cc1Cl [Example 116]
EC50 (HBV [1]): 19.9 nM
CC50 at 4 days [2]: > 150 µM

COC(=O)C1=C(CN2CCN3C(=O)N(c4cc(F)cc(-c5ccc(C(=O)O)cc5)c4)C[C@@H]3C2)NC(c2nccs2)=N[C@H]1c1ccc(F)cc1Cl [Example 117, 3′-((S)-7-(((R)-6-(2-chloro-4-fluorophenyl)-5-(methoxycarbonyl)-2-(thiazol-2-yl)-3,6-dihydroprimidin-4-yl)methyl)-3-oxohexahydroimidazo[1,5-a]pyrazin-2(3H)-yl)-5′-fluoro-[1,1′-biphenyl]-4-carboxylic acid]
EC50 (HBV [1]): 18.8 nM
CC50 at 4 days [2]: > 150 µM

COC(=O)C1=C(CN2CCN3C(=O)N(c4cc(F)cc(-c5ccc(C(=O)O)cc5F)c4)C[C@@H]3C2)NC(c2nccs2)=N[C@H]1c1ccc(F)cc1Cl [Example 118, 3′-((S)-7-(((R)-6-(2-chloro-4-fluorophenyl)-5-(methoxycarbonyl)-2-(thiazol-2-yl)-3,6-dihydropyrimidin-4-yl)methyl)-3-oxohexahydroimidazo[1,5-a]pyrazin-2(3H)-yl)-2,5′-difluoro-[1,1′-biphenyl]-4-carboxylic acid]
EC50 (HBV [1]): 8.9 nM
CC50 at 4 days [2]: > 150 µM

COC(=O)C1=C(CN2CCN3C(=O)N(c4cc(F)cc(-c5ccc(C(=O)O)c(F)c5)c4)C[C@@H]3C2)NC(c2nccs2)=N[C@H]1c1ccc(F)cc1Cl [Example 119]
EC50 (HBV [1]): 15.6 nM
CC50 at 4 days [2]: > 150 µM

COC(=O)C1=C(CN2CCN3C(=O)N(c4ccc(-c5ccc(C(=O)O)cc5)nc4)C[C@@H]3C2)NC(c2nccs2)=N[C@H]1c1ccc(F)cc1Cl [Example 122, 4-(5-((S)-7-(((R)-6-(2-chloro-4-fluorophenyl)-5-(methoxycarbonyl)-2-(thiazol-2-yl)-3,6-dihydropyrimidin-4-yl)methyl)-3-oxohexahydroimidazo[1,5-a]pyrazin-2(3H)-yl)pyridin-2-yl)benzoic acid]
EC50 (HBV [1]): 45.6 nM
CC50 at 4 days [2]: > 150 µM

COC(=O)C1=C(CN2CCN3C(=O)N(c4ccnc(-c5ccc(C(=O)O)cc5)c4)C[C@@H]3C2)NC(c2nccs2)=N[C@H]1c1ccc(F)cc1Cl [Example 123, 4-(4-((S)-7-(((R)-6-(2-chloro-4-fluorophenyl)-5-(methoxycarbonyl)-2-(thiazol-2-yl)-3,6-dihydropyrimidin-4-yl)methyl)-3-oxohexahydroimidazo[1,5-a]pyrazin-2(3H)-yl)pyridin-2-yl)benzoic acid]
EC50 (HBV [1]): 37.9 nM
CC50 at 4 days [2]: > 150 µM

COC(=O)C1=C(CN2CCN3C(=O)N(c4ccc(-c5ccc(C(C)(C)C(=O)O)cc5)nc4)C[C@@H]3C2)NC(c2nccs2)=N[C@H]1c1ccc(F)cc1Cl [Example 125, 2-(4-(5-((S)-7-(((R)-6-(2-chloro-4-fluorophenyl)-5-(methoxycarbonyl)-2-(thiazol-2-yl)-3,6-dihydropyrimidin-4-yl)methyl)-3-oxohexahydroimidazo[1,5-a]pyrazin-2(3H)-yl)pyridin-2-yl)phenyl)-2-methylpropanoic acid]
EC50 (HBV [1]): 21 nM
CC50 at 4 days [2]: > 150 µM

COC(=O)C1=C(CN2CCN3C(=O)N(c4ccc(-c5ccc(CCC(=O)O)cc5)cc4)C[C@@H]3C2)NC(c2nccs2)=N[C@H]1c1ccc(F)cc1Cl [Example 126, 3-(4′-((S)-7-(((R)-6-(2-chloro-4-fluorophenyl)-5-(methoxycarbonyl)-2-(thiazol-2-yl)-3,6-dihydropyrimidin-4-yl)methyl)-3-oxohexahydroimidazo[1,5-a]pyrazin-2(3H)-yl)-[1,1′-biphenyl]-4-yl)propanoic acid]
EC50 (HBV [1]): 6.7 nM
CC50 at 4 days [2]: > 150 µM

COC(=O)C1=C(CN2CCN3C(=O)N(c4nc(-c5ccc(CCC(=O)O)cc5)cs4)C[C@@H]3C2)NC(c2nccs2)=N[C@H]1c1ccc(F)cc1Cl [Example 135, 3-(4-(2-((S)-7-(((R)-6-(2-chloro-4-fluorophenyl)-5-(methoxycarbonyl)-2-(thiazol-2-yl)-3,6-dihydropyrimidin-4-yl)methyl)-3-oxohexahydroimidazo[1,5-a]pyrazin-2(3H)-yl)thiazol-4-yl)phenyl)propanoic acid]
EC50 (HBV [1]): 6.5 nM
CC50 at 4 days [2]: > 150 µM

COC(=O)C1=C(CN2CCN3C(=O)N(c4nc(-c5ccc(C(=O)O)cc5F)cs4)C[C@@H]3C2)NC(c2nccs2)=N[C@H]1c1ccc(F)cc1Cl [Example 136, 4-(2-((S)-7-(((R)-6-(2-chloro-4-fluorophenyl)-5-(methoxycarbonyl)-2-(thiazol-2-yl)-3,6-dihydropyrimidin-4-yl)methyl)-3-oxohexahydroimidazo[1,5-a]pyrazin-2(3H)-yl)thiazol-4-yl)-3-fluorobenzoic acid]
EC50 (HBV [1]): 20.1 nM
CC50 at 4 days [2]: > 150 µM

COC(=O)C1=C(CN2CCN3C(=O)N(c4nc(-c5ccc(C(=O)O)c(F)c5)cs4)C[C@@H]3C2)NC(c2nccs2)=N[C@H]1c1ccc(F)cc1Cl [Example 137, 4-(2-((S)-7-(((R)-6-(2-chloro-4-fluorophenyl)-5-(methoxycarbonyl)-2-(thiazol-2-yl)-3,6-dihydropyrimidin-4-yl)methyl)-3-oxohexahydroimidazo[1,5-a]pyrazin-2(3H)-yl)thiazol-4-yl)-2-fluorobenzoic acid]
EC50 (HBV [1]): 10 nM
CC50 at 4 days [2]: > 150 µM

COC(=O)C1=C(CN2CCN3C(=O)N(c4nc(-c5cc(F)cc(C(=O)O)c5)cs4)C[C@@H]3C2)NC(c2nccs2)=N[C@H]1c1ccc(F)cc1Cl [Example 138, 3-(2-((S)-7-(((R)-6-(2-chloro-4-fluorophenyl)-5-(methoxycarbonyl)-2-(thiazol-2-yl)-3,6-dihydropyrimidin-4-yl)methyl)-3-oxohexahydroimidazo[1,5-a]pyrazin-2(3H)-yl)thiazol-4-yl)-5-fluorobenzoic acid]
EC50 (HBV [1]): 34 nM
CC50 at 4 days [2]: > 150 µM

COC(=O)C1=C(CN2CCN3C(=O)N(c4nc(-c5cccc(C(=O)O)c5)cs4)C[C@@H]3C2)NC(c2nccs2)=N[C@H]1c1ccc(F)cc1Cl [Example 139, 3-(2-((S)-7-(((R)-6-(2-chloro-4-fluorophenyl)-5-(methoxycarbonyl)-2-(thiazol-2-yl)-3,6-dihydropyrimidin-4-yl)methyl)-3-oxohexahydroimidazo[1,5-a]pyrazin-2(3H)-yl)thiazol-4-yl)benzoic acid]
EC50 (HBV [1]): 10.7 nM
CC50 at 4 days [2]: > 150 µM

Nc1ccn([C@@H]2CS[C@H](CO)O2)c(=O)n1 [lamivudine]
IC50 (HBV [3]): 300 nM
